According to patent US20120077732A1, “CYCLIC PEPTIDES AND USES THEREOF” (SYDNEY WEST AREA HEALTH SERVICE, priority 2008, published 2012):
No end group written: not given here.

Tests used:
[1] = tested on: trypsin; type: in vitro ADME
Method: The effect of trypsin on C1 and CP was studied by incubating each peptide (1 μg/μl) in methanol and ammonium bicarbonate (0.1M) with 125 ng/μl of trypsin at pH 8 and 37° C. The effect of trypsin after incubation with CP and C1 was followed by mass spectrometry. […]

[2] = tested on: 2B4.11 hybridoma; experiment: Antigen presentation assay (IL-2 produced in response to antigen); type: cell-based
[3] = Surface plasmon resonance binding to DMPC liposomes; details: SPR, L1 sensor chip, 50 μM, 25° C.
Method: (§1) Model membranes composed of zwitterionic and anionic phospholipids were prepared as previously described (Bender et al., 2004). Briefly, DMPC and DMPG were dissolved in dry chloroform and chloroform/methanol (2:1) respectively to give 10 mg/ml solutions. […] The solution was sonicated in an ultrasonic bath for 20 min. Eight cycles of freeze/thawing was followed by extrusion through polycarbonate filters, first 100 nm (21 times) then 50 nm pore diameter (21 times), using a Lipofast apparatus (Avestin, Ottawa, Canada) and SUVs were used immediately. SPR was carried out on a BIAcore 2000 instrument using Pioneer Sensor Chip L1 and HEPES (HBS-N, Biacore, Upssala, Sweden) as running buffer. The chip surface was cleaned with 40 mM octyl glycoside (30 μl, 10 μl/min) followed liposomes (SUV) (100 μl, 5 μl/min). 10 mM NaOH (40 μl, 10 μl/min) removed any multilamellar vesicles from the surface before injecting the lipopeptide solutions (100 μl, 5 μl/min). The dissociation stage was 1200 sec. […] All SPR experiments were run at 25° C. and all analyses were performed using the BIAevaluation software (Biacore, Uppsala, Sweden). Lipopeptide binding was expressed as the difference in signal between points before sample injection and after dissociation.

[4] = Surface plasmon resonance binding to DMPG liposomes; details: SPR, L1 sensor chip, 50 μM, 25° C.
Method: as §1

[5] = tested on: allergic mice (OVA/OVA); experiment: Allergic airways disease (OVA) model: inflammatory cells in BALF; type: in vivo; set-up: key to Airway lymphocytes / Airway eosinophils / Airway macrophages / Airway inflammatory cells / Airway neutrophils: nc: no change; ↑: increase; ↓: decrease
[6] = tested on: allergic mice (OVA/OVA); experiment: Allergic airways disease (OVA) model: local and systemic OVA-specific cytokine production; type: in vivo; set-up: key to Spleen OVA-stimulated IL-5 / Spleen OVA-stimulated IL-13 / LN OVA-stimulated IL-5 / LNOVA stimulated IL-13: nc: no change; ↑: increase; ↓: decrease
[7] = tested on: allergic mice (OVA/OVA); experiment: Allergic airways disease (OVA) model: airways hyperreactivity to methacholine; type: in vivo; set-up: key to Airway Resistance / Airway Compliance: nc: no change; ↑: increase; ↓: decrease
[8] = 200 μg s.c. during challenge, allergic mice
[9] = 200 μg/100 μl s.c. during OVA challenge, compared to OVA/OVA alone

## GLRILLLKV [CP, GLRILLLKV, reference compound]
[1]
  stability without trypsin, 3 hours (Mass spectroscopy-MS): No degradation product
  stability without trypsin, 24 hours (MS): No degradation product

## LDRLDLLDLLDKVDG [C1-L]
[2]; average, Tables 1-3
  % Ave IL2 Production: 90%
[2]; peptide 50 μM, 0.5% DMSO, ±SD
  IL-2 production, % of the solvent only control value: only minimal activity
[3]
  binding to DMPC (zwitterionic) liposomes: only very limited binding
[4]
  binding to DMPG (anionic) liposomes: only very limited binding
[5]; [8]
  eosinophils in BALF: decrease
  total inflammatory cell counts in bronchoalveolar lavage fluid (BALF): significantly decreased
[5]; [9]
  Airway eosinophils: ↓
  Airway inflammatory cells: ↓
  Airway lymphocytes: nc
  Airway macrophages: nc
  Airway neutrophils: nc
[6]; [8]
  locally produced (peribronchial lymph node derived) IL-5: no significant impact
  locally produced (peribronchial lymph node derived) IL-13: no significant impact
  systemic (spleen derived) IL-5: significantly decreased
  systemic (spleen derived) IL-13: no change
[6]; [9]
  LN OVA-stimulated IL-5: nc
  LNOVA stimulated IL-13: nc
  Spleen OVA-stimulated IL-5: ↓
  Spleen OVA-stimulated IL-13: nc
[7]; [8]
  airway resistance in response to methacholine challenge: no significant effect
  dynamic compliance in response to methacholine challenge: no significant effect
[7]; [9]
  Airway Compliance: nc
  Airway Resistance: nc
